Results taken from US6835748B2, “Treatment of ocular disorders” (priority 1999, dated 2004).

Key:
Type in all cases: in vivo, rabbit
[1] = tested on: normotensive adult rabbits; assay: IOP measurement (TonoPen XL) after a single topical 50-μL drop in rabbits
Description: (§1) Male and female adult brown burgundy rabbits (2.6-4.4 kg) are used in this study. Animals are kept in individual cages under well-defined and standardized conditions (humidity and temperature controlled room, 13 h light/11 h dark cycle) with standard dry food and water ad libitum. All animals are accustomed to the procedure of IOP measurement but only those animals that have stable records are included in the study. All experiments are conducted in accordance with the ARVO resolution for the use of animals in ophthalmic and vision research and are approved by the Federal and Local Ethical and Agricultural Committees.
(§2) Solutions of a test drug are freshly prepared before each experiment by dissolution in sterile balanced salt solution (BSS) (Alcon Pharmaceuticals Ltd, Forth Worth, Tex., USA) at the required concentrations under sterile conditions. One 50-μL drop of the test solution is applied topically to the right eye whereas the contralateral eye receives the carrier BSS only.
IOP is measured with a TonoPen XL (Mentor, Norvel, Mass.), the device being calibrated daily according to the manufacturer's instructions. […] Corneas are anaesthetized by topical application of a 50-μL drop of 0.2% Novocaine prior to each IOP measurement.
Measurements are always initiated at the same time (8 a.m.), a sufficient recovery period of at least 7 days is provided for the animals between the experiments. Control readings are taken 10 minutes before instillation of the test drug to the right eye and of the vehicle to the left one. IOP is recorded at 1-hour intervals for the ensuing 8 hours. Baseline measurements are likewise performed hourly in all animals prior to treatment, for monitoring of diurnal rhythms. (9)
Data are analyzed according to the Mann-Whitney U-test. IOP values recorded before and after application of Rivastigmine or the drug vehicle are compared in the same eye, differences with a first order error of P<0.05 being considered as statistically significant.

[2] = tested on: normotensive adult rabbits; assay: Slit-lamp examination (local tolerability); conditions: topical 1%, 2%, 5% solutions; before and 4 and 8 hours after administration
Description: as §1, §2
Slit-lamp biomicroscopy is performed by a trained ophthalmologist before drug administration and 4 and 8 hours thereafter. Eyes are controlled for conjunctival redness and discharge, for integrity of the corneal epithelium and for the absence or presence of flare (protein in the anterior chamber being an indication of blood aqueous barrier breakdown).

[3] = tested on: normotensive adult rabbits; assay: Pupil diameter measurement; conditions: topical 1%, 2%, 5% solutions
Description: as §1, §2
Pupil diameter is measured horizontally in both eyes using a pupil gauge closely applied to the cornea under diffuse illumination conditions.

CCN(C)C(=O)Oc1cccc(C(C)N(C)C)c1 (centres unmarked) [Rivastigmine]
Time of maximal mean decrease in IOP, treated eye ([1]; 1% solution): 5 h | Duration of significant IOP-lowering effect, treated eyes ([1]; 1% solution (longest effect)): 5 h | IOP, left eye (untreated, vehicle) ([1]; 1% solution applied to contralateral right eye, n=8, time 0 hrs (control reading before instillation)): 12.0 mm | Time of maximal mean decrease in IOP, untreated eye ([1]; 1% solution to contralateral eye): 4 h | IOP, left eye (untreated, vehicle) ([1]; 1% solution to contralateral eye, time 1 hrs): 11.6 mm | IOP, left eye (untreated, vehicle) ([1]; 1% solution to contralateral eye, time 2 hrs): 11.2 mm | IOP, left eye (untreated, vehicle) ([1]; 1% solution to contralateral eye, time 3 hrs): 11.1 mm | IOP, left eye (untreated, vehicle) ([1]; 1% solution to contralateral eye, time 4 hrs): 10.2 mm | IOP, left eye (untreated, vehicle) ([1]; 1% solution to contralateral eye, time 5 hrs): 11.0 mm | IOP, left eye (untreated, vehicle) ([1]; 1% solution to contralateral eye, time 6 hrs): 10.7 mm | IOP, left eye (untreated, vehicle) ([1]; 1% solution to contralateral eye, time 7 hrs): 11.1 mm | IOP, left eye (untreated, vehicle) ([1]; 1% solution to contralateral eye, time 8 hrs): 11.4 mm | IOP, right eye (treated) ([1]; 1% solution, 50-μL drop topical, n=8, time 0 hrs (control reading before instillation)): 12.3 mm | Maximal mean decrease in IOP, treated eye ([1]; 1% solution, 5 hours after application): 2.6±1.2 mm Hg | IOP, right eye (treated) ([1]; 1% solution, time 1 hrs): 12.0 mm | IOP, right eye (treated) ([1]; 1% solution, time 2 hrs): 11.2 mm | IOP, right eye (treated) ([1]; 1% solution, time 3 hrs): 10.8 mm | IOP, right eye (treated) ([1]; 1% solution, time 4 hrs): 10.5 mm | IOP, right eye (treated) ([1]; 1% solution, time 5 hrs): 10.1 mm | IOP, right eye (treated) ([1]; 1% solution, time 6 hrs): 11.1 mm | IOP, right eye (treated) ([1]; 1% solution, time 7 hrs): 11.5 mm | IOP, right eye (treated) ([1]; 1% solution, time 8 hrs): 11.6 mm | Time of maximal mean decrease in IOP, treated eye ([1]; 2% solution): 3 h | IOP, left eye (untreated, vehicle) ([1]; 2% solution applied to contralateral right eye, n=4, time 0 hrs (control reading before instillation)): 11.2 mm | Time of maximal mean decrease in IOP, untreated eye ([1]; 2% solution to contralateral eye): 3 h | IOP, left eye (untreated, vehicle) ([1]; 2% solution to contralateral eye, time 1 hrs): 11.9 mm | IOP, left eye (untreated, vehicle) ([1]; 2% solution to contralateral eye, time 2 hrs): 11.2 mm | IOP, left eye (untreated, vehicle) ([1]; 2% solution to contralateral eye, time 3 hrs): 10.2 mm | IOP, left eye (untreated, vehicle) ([1]; 2% solution to contralateral eye, time 4 hrs): 12.3 mm | IOP, left eye (untreated, vehicle) ([1]; 2% solution to contralateral eye, time 5 hrs): 11.5 mm | IOP, left eye (untreated, vehicle) ([1]; 2% solution to contralateral eye, time 6 hrs): 11.2 mm | IOP, left eye (untreated, vehicle) ([1]; 2% solution to contralateral eye, time 7 hrs): 11.0 mm | IOP, left eye (untreated, vehicle) ([1]; 2% solution to contralateral eye, time 8 hrs): 13.0 mm | IOP, right eye (treated) ([1]; 2% solution, 50-μL drop topical, n=4, time 0 hrs (control reading before instillation)): 11.5 mm | Maximal mean decrease in IOP, treated eye ([1]; 2% solution, 3 hours after application): 2.2±0.8 mm Hg | IOP, right eye (treated) ([1]; 2% solution, time 1 hrs): 11.5 mm | IOP, right eye (treated) ([1]; 2% solution, time 2 hrs): 11.0 mm | IOP, right eye (treated) ([1]; 2% solution, time 3 hrs): 9.2 mm | IOP, right eye (treated) ([1]; 2% solution, time 4 hrs): 10.8 mm | IOP, right eye (treated) ([1]; 2% solution, time 5 hrs): 11.5 mm | IOP, right eye (treated) ([1]; 2% solution, time 6 hrs): 11.1 mm | IOP, right eye (treated) ([1]; 2% solution, time 7 hrs): 10.8 mm | IOP, right eye (treated) ([1]; 2% solution, time 8 hrs): 12.0 mm | Time of maximal mean decrease in IOP, treated eye ([1]; 5% solution): 1 h | IOP, left eye (untreated, vehicle) ([1]; 5% solution applied to contralateral right eye, n=6, time 0 hrs (control reading before instillation)): 13.4 mm | Time of maximal mean decrease in IOP, untreated eye ([1]; 5% solution to contralateral eye): 1 h | IOP, left eye (untreated, vehicle) ([1]; 5% solution to contralateral eye, time 1 hrs): 10.7 mm | IOP, left eye (untreated, vehicle) ([1]; 5% solution to contralateral eye, time 2 hrs): 11.5 mm | IOP, left eye (untreated, vehicle) ([1]; 5% solution to contralateral eye, time 3 hrs): 11.3 mm | IOP, left eye (untreated, vehicle) ([1]; 5% solution to contralateral eye, time 4 hrs): 11.9 mm | IOP, left eye (untreated, vehicle) ([1]; 5% solution to contralateral eye, time 5 hrs): 13.2 mm | IOP, left eye (untreated, vehicle) ([1]; 5% solution to contralateral eye, time 6 hrs): 12.5 mm | IOP, left eye (untreated, vehicle) ([1]; 5% solution to contralateral eye, time 7 hrs): 13.3 mm | IOP, left eye (untreated, vehicle) ([1]; 5% solution to contralateral eye, time 8 hrs): 13.0 mm | Significance of IOP decrease in untreated eyes ([1]; 5% solution to contralateral eye, P<0.05, Mann-Whitney U-test): significant | IOP, right eye (treated) ([1]; 5% solution, 50-μL drop topical, n=6, time 0 hrs (control reading before instillation)): 13.7 mm | Maximal mean decrease in IOP, treated eye ([1]; 5% solution, 1 hour after application): 3.5±1.2 mm Hg | IOP, right eye (treated) ([1]; 5% solution, time 1 hrs): 10.0 mm | IOP, right eye (treated) ([1]; 5% solution, time 2 hrs): 11.1 mm | IOP, right eye (treated) ([1]; 5% solution, time 3 hrs): 10.8 mm | IOP, right eye (treated) ([1]; 5% solution, time 4 hrs): 10.5 mm | IOP, right eye (treated) ([1]; 5% solution, time 5 hrs): 12.9 mm | IOP, right eye (treated) ([1]; 5% solution, time 6 hrs): 12.5 mm | IOP, right eye (treated) ([1]; 5% solution, time 7 hrs): 14.0 mm | IOP, right eye (treated) ([1]; 5% solution, time 8 hrs): 11.8 mm | IOP effect in the treated eye (in words) ([1]; topical 1%, 2%, 5% solutions): lowers the IOP significantiy | Local toxicity (slit-lamp: redness, discharge, corneal epithelium, flare) [2]: No signs of rivastigmine-related local toxicity | Pupil reaction in drug-treated eyes [3]: insignificant miotic pupil reaction
